Values joined by “and” are separate entries in the source; they are usually repeats but may differ in a detail not shown here. Equal values may be shown once. ± gives the uncertainty stated by the source.
Assay: xn = mol fraction of the nth substance listed

N#CCCCCC#N + CS(C)=O
303.15 K, 101.33 kPa
Conditions | viscosity [mPa·s]
x1 = 0.1031 | 2.027 ± 0.012
x1 = 0.2999 | 2.489 ± 0.014
x1 = 0.4015 | 2.76 ± 0.016
x1 = 0.5024 | 3.06 ± 0.017
x1 = 0.5947 | 3.343 ± 0.019
x1 = 0.6945 | 3.682 ± 0.021
x1 = 0.8441 | 4.243 ± 0.024

CC(O)C(=O)O (stereo unspecified) + C[C@H](N)C(=O)O
101 kPa, x2 = 0.5
Conditions | viscosity [mPa·s]
298.15 K | 23710 ± 3900
318.15 K | 3481 ± 740

CC(O)C(=O)O (stereo unspecified) + C[N+](C)(C)CCO.[Cl-]
viscosity
Conditions | 100 kPa | 101 kPa
293.15 K, x2 = 0.1 | 92.67 ± 4.1 mPa·s | –
293.15 K, x2 = 0.1667 | 107.5 ± 4.7 mPa·s | –
293.15 K, x2 = 0.3333 | 229.3 ± 11 mPa·s | –
293.15 K, x2 = 0.5 | 527 ± 28 mPa·s | –
300.15 K, x2 = 0.1 | 52.02 ± 2.2 mPa·s | –
300.15 K, x2 = 0.1667 | 59.99 ± 2.5 mPa·s | –
300.15 K, x2 = 0.3333 | 127 ± 5.5 mPa·s | –
300.15 K, x2 = 0.5 | 276.9 ± 13 mPa·s | –
303.15 K, x2 = 0.5 | – | 1245 ± 410 mPa·s
308.15 K, x2 = 0.5 | – | 877.3 ± 250 mPa·s
313.15 K, x1 = 0.57 | – | 267.5 ± 10 mPa·s
313.15 K, x1 = 0.9 | – | 103.5 ± 2.2 mPa·s
313.15 K, x1 = 0.94 | – | 103.5 ± 2.2 mPa·s
313.15 K, x2 = 0.1 | 31.27 ± 1.3 mPa·s | –
313.15 K, x2 = 0.1667 | 35.62 ± 1.5 mPa·s | –
313.15 K, x2 = 0.3333 | 79.44 ± 3.3 mPa·s | –
313.15 K, x2 = 0.5 | 157.6 ± 6.9 mPa·s | 626.3 ± 160 mPa·s
318.15 K, x2 = 0.5 | – | 452.1 ± 100 mPa·s
323.15 K, x2 = 0.1 | 20.21 ± 0.84 mPa·s and 20.21 ± 0.83 mPa·s | –
323.15 K, x2 = 0.1667 | 23.07 ± 0.95 mPa·s | –
323.15 K, x2 = 0.3333 | 51 ± 2 mPa·s | –
323.15 K, x2 = 0.5 | 97.82 ± 4.1 mPa·s | 335.1 ± 65 mPa·s

Clc1cccc2ccccc12 + Cc1cc(C)cc(C)c1
viscosity [mPa·s], 101.33 kPa
Conditions | x1 = 0.0983 | x1 = 0.2041 | x1 = 0.2992 | x1 = 0.3988 | x1 = 0.4984 | x1 = 0.6008 | x1 = 0.6999 | x1 = 0.8017 | x1 = 0.9016
298.15 K | 0.688 ± 0.01 | 0.807 ± 0.014 | 0.929 ± 0.018 | 1.086 ± 0.023 | 1.251 ± 0.03 | 1.476 ± 0.04 | 1.706 ± 0.052 | 2.019 ± 0.068 | 2.376 ± 0.088
303.15 K | 0.644 ± 0.01 | 0.753 ± 0.013 | 0.863 ± 0.016 | 1.003 ± 0.022 | 1.15 ± 0.028 | 1.346 ± 0.037 | 1.551 ± 0.047 | 1.826 ± 0.062 | 2.138 ± 0.079
308.15 K | 0.605 ± 0.009 | 0.703 ± 0.012 | 0.803 ± 0.015 | 0.927 ± 0.02 | 1.062 ± 0.026 | 1.239 ± 0.034 | 1.419 ± 0.043 | 1.661 ± 0.056 | 1.935 ± 0.071

Clc1cccc2ccccc12 + Cc1ccc(C)cc1
viscosity [mPa·s], 101.33 kPa
Conditions | x1 = 0.0966 | x1 = 0.1961 | x1 = 0.2964 | x1 = 0.3991 | x1 = 0.4981 | x1 = 0.597 | x1 = 0.7003 | x1 = 0.7974 | x1 = 0.8991
298.15 K | 0.635 ± 0.01 | 0.737 ± 0.012 | 0.847 ± 0.016 | 1.002 ± 0.022 | 1.16 ± 0.028 | 1.36 ± 0.037 | 1.614 ± 0.049 | 1.899 ± 0.064 | 2.294 ± 0.084
303.15 K | 0.596 ± 0.009 | 0.687 ± 0.012 | 0.789 ± 0.015 | 0.926 ± 0.02 | 1.074 ± 0.026 | 1.25 ± 0.034 | 1.475 ± 0.045 | 1.723 ± 0.058 | 2.072 ± 0.076
308.15 K | 0.562 ± 0.009 | 0.644 ± 0.011 | 0.738 ± 0.014 | 0.863 ± 0.019 | 0.997 ± 0.024 | 1.158 ± 0.032 | 1.357 ± 0.041 | 1.576 ± 0.053 | 1.882 ± 0.069

Clc1ccccc1 + Cc1ccc(C)cc1
101 kPa
Conditions | viscosity [mPa·s]
293.15 K, x1 = 0.1144 | 0.598 ± 0.011
293.15 K, x1 = 0.2316 | 0.621 ± 0.011
293.15 K, x1 = 0.337 | 0.641 ± 0.011
293.15 K, x1 = 0.4432 | 0.657 ± 0.012
293.15 K, x1 = 0.5417 | 0.673 ± 0.012
293.15 K, x1 = 0.6319 | 0.687 ± 0.012
293.15 K, x1 = 0.7398 | 0.706 ± 0.012
293.15 K, x1 = 0.8385 | 0.722 ± 0.013
293.15 K, x1 = 0.9124 | 0.734 ± 0.013
298.15 K, x1 = 0.1363 | 0.57 ± 0.01
298.15 K, x1 = 0.2224 | 0.585 ± 0.011
298.15 K, x1 = 0.3453 | 0.608 ± 0.011
298.15 K, x1 = 0.4555 | 0.625 ± 0.011
298.15 K, x1 = 0.5832 | 0.645 ± 0.012
298.15 K, x1 = 0.6956 | 0.667 ± 0.012
298.15 K, x1 = 0.7881 | 0.679 ± 0.012
298.15 K, x1 = 0.9065 | 0.695 ± 0.012
303.15 K, x1 = 0.1144 | 0.534 ± 0.01
303.15 K, x1 = 0.2318 | 0.55 ± 0.01
303.15 K, x1 = 0.3419 | 0.572 ± 0.011
303.15 K, x1 = 0.4624 | 0.587 ± 0.011
303.15 K, x1 = 0.5653 | 0.602 ± 0.011
303.15 K, x1 = 0.6803 | 0.615 ± 0.011
303.15 K, x1 = 0.7947 | 0.635 ± 0.011
303.15 K, x1 = 0.9082 | 0.649 ± 0.012

Clc1ccccc1 + Cc1cccc(C)c1
101 kPa
Conditions | viscosity [mPa·s]
293.15 K, x1 = 0.1317 | 0.622 ± 0.011
293.15 K, x1 = 0.2304 | 0.64 ± 0.011
293.15 K, x1 = 0.3342 | 0.658 ± 0.012
293.15 K, x1 = 0.4457 | 0.675 ± 0.012
293.15 K, x1 = 0.5734 | 0.692 ± 0.012
293.15 K, x1 = 0.6411 | 0.7 ± 0.012
293.15 K, x1 = 0.7297 | 0.715 ± 0.013
293.15 K, x1 = 0.8241 | 0.725 ± 0.013
293.15 K, x1 = 0.9089 | 0.737 ± 0.013
298.15 K, x1 = 0.115 | 0.587 ± 0.011
298.15 K, x1 = 0.2331 | 0.605 ± 0.011
298.15 K, x1 = 0.3319 | 0.621 ± 0.011
298.15 K, x1 = 0.465 | 0.641 ± 0.012
298.15 K, x1 = 0.565 | 0.655 ± 0.012
298.15 K, x1 = 0.6929 | 0.671 ± 0.012
298.15 K, x1 = 0.7812 | 0.685 ± 0.012
298.15 K, x1 = 0.9072 | 0.697 ± 0.012
303.15 K, x1 = 0.1144 | 0.55 ± 0.01
303.15 K, x1 = 0.2301 | 0.571 ± 0.01
303.15 K, x1 = 0.3415 | 0.585 ± 0.011
303.15 K, x1 = 0.4598 | 0.605 ± 0.011
303.15 K, x1 = 0.562 | 0.615 ± 0.011
303.15 K, x1 = 0.6931 | 0.63 ± 0.011
303.15 K, x1 = 0.8136 | 0.645 ± 0.012
303.15 K, x1 = 0.904 | 0.651 ± 0.012
308.15 K, x2 = 0.0886 | 0.661 ± 0.011
308.15 K, x2 = 0.2076 | 0.6411 ± 0.011
308.15 K, x2 = 0.3076 | 0.6254 ± 0.011
308.15 K, x2 = 0.4147 | 0.6081 ± 0.011
308.15 K, x2 = 0.5146 | 0.5927 ± 0.01
308.15 K, x2 = 0.6138 | 0.578 ± 0.01
308.15 K, x2 = 0.715 | 0.562 ± 0.01
308.15 K, x2 = 0.8146 | 0.5474 ± 0.0098
308.15 K, x2 = 0.9338 | 0.5309 ± 0.0096
313.15 K, x2 = 0.0886 | 0.6235 ± 0.011
313.15 K, x2 = 0.2076 | 0.6053 ± 0.011
313.15 K, x2 = 0.3076 | 0.5896 ± 0.01
313.15 K, x2 = 0.4147 | 0.5741 ± 0.01
313.15 K, x2 = 0.5146 | 0.5604 ± 0.01
313.15 K, x2 = 0.6138 | 0.5458 ± 0.0098
313.15 K, x2 = 0.715 | 0.5302 ± 0.0096
313.15 K, x2 = 0.8146 | 0.5163 ± 0.0094
313.15 K, x2 = 0.9338 | 0.5007 ± 0.0092

CCCCn1cc[n+](C)c1.F[P-](F)(F)(F)(F)F + Cc1ccccc1
Conditions | viscosity [mPa·s]
310.65 K, 101 kPa, x1 = 0.8 | 31.65 ± 1.3
